Measurements taken from paper PMC3571899, “M48U1 CD4 mimetic has a sustained inhibitory effect on cell-associated HIV-1 by attenuating virion infectivity through gp120 shedding” (Retrovirology, 2013).

Key:
HIV-1 Bal [1] = assay: Antiviral EC50 in PBMCs against HIV-1 Bal; type: cell-based; details: linear regression analysis, one experiment with 6 replicates
HIV-1 Bal infected PBMCs = assay: Gag p24 production by infected PBMCs during 24 h ARV treatment (p24 capture ELISA); type: cell-based; details: 24 h treatment at 100x EC50, Gag p24 capture ELISA
Procedure: Figure 1 M48U1 has a memory effect on cell-associated virus. A) The Trojan Horse transmission concept was modeled in vitro using HIV-infected PBMCs which were treated for 24 h with antiretrovirals (ARVs) from different classes at 100x EC50 concentrations. Subsequently, virus production was quantified using a Gag p24 ELISA. To mimic escape from vaginal drug pressure, the infected cells were then incubated in ARV-free medium for three consecutive periods of 24 h. Infectivity of newly produced virions was determined after each period by titration in TZM-bl cells and PBMCs using equal amounts of p24. […] Values represent the 50% Tissue Culture Infective Dose (TCID50)/ml as measured in one experiment carried out in triplicate.
PHA/IL-2 stimulated PBMCs were infected with 2 x 10^-3 multiplicity of infection (MOI) of the CCR5-tropic subtype B strain Bal for three days and subsequently washed extensively to remove the inoculum (Figure 1A). […] The virions produced from these cultures were then quantified in quadruplicate by a Gag p24 capture ELISA [18].

HIV-1 Bal [2] = assay: Infectivity of de novo virus from pretreated, washed infected PBMCs (memory effect); type: cell-based; details: for relative titer of de novo produced virions: PBMCs pretreated 24 h at 100x EC50, washed, 24 h drug-free, titrated on TZM-bl cells with equal p24, relative to untreated control
Procedure: Figure 1 M48U1 has a memory effect on cell-associated virus. A) The Trojan Horse transmission concept was modeled in vitro using HIV-infected PBMCs which were treated for 24 h with antiretrovirals (ARVs) from different classes at 100x EC50 concentrations. Subsequently, virus production was quantified using a Gag p24 ELISA. To mimic escape from vaginal drug pressure, the infected cells were then incubated in ARV-free medium for three consecutive periods of 24 h. Infectivity of newly produced virions was determined after each period by titration in TZM-bl cells and PBMCs using equal amounts of p24. B) Production of Gag p24 by infected PBMCs during 24 h treatment with eleven ARVs: the non-nucleoside reverse transcriptase inhibitors (NNRTIs; blue) UC781 and TMC120, the nucleotide reverse transcriptase inhibitor tenofovir (PMPA; red), the entry inhibitors (grey) maraviroc (MVC), T-20, C34-chol, griffithsin (GRFT) and M48U1, the protease inhibitors (green) lopinavir (LPV) and saquinavir (SQV), and the integrase inhibitor raltegravir (RAL). Values are expressed relative to untreated control cultures and represent the mean +/− SEM of at least three independent experiments, each carried out in triplicate. C) Bal infectivity of de novo produced virus by pretreated infected PBMCs in absence of drug during three consecutive periods of 24 h. Values are expressed relative to untreated control cultures and represent the mean +/− SEM of at least three independent experiments, each carried out in triplicate. D) Infectivity of de novo produced transmitted/founder viruses REJO and THRO (subtype B) and Bal by M48U1 treated infected PBMCs in absence of drug during three consecutive periods of 24 h. Values are expressed relative to untreated control cultures. E) Infectivity of wild type (black) and M48U1-resistant (red) Bal virus produced during a 24 h period in absence of drug by pretreated infected PBMCs. Values represent the 50% Tissue Culture Infective Dose (TCID50)/ml as measured in one experiment carried out in triplicate.
PHA/IL-2 stimulated PBMCs were infected with 2 x 10^-3 multiplicity of infection (MOI) of the CCR5-tropic subtype B strain Bal for three days and subsequently washed extensively to remove the inoculum (Figure 1A). Next, cells were incubated for 24 hours with ARVs from different classes at 100x EC50 concentrations for each compound (Table 1). The virions produced from these cultures were then quantified in quadruplicate by a Gag p24 capture ELISA [18].
Next, we evaluated whether these ARVs affected the infectivity of the virus produced. PBMCs were infected as described above and were washed extensively to remove inhibitor and incubated in fresh medium for a new round of viral replication. After 24 h, supernatant was harvested, and then assessed for its ability to infect TZM-bl cells using identical viral inocula (based on equal amounts of Gag p24). The obtained viral titers were expressed as a percentage, relative to the untreated control cultures (Figure 1C). […] A smaller loss in titer was observed after treatment with the PIs saquinavir (relative titer of 47%) and lopinavir (relative titer of 14%), and the carbohydrate binding protein griffithsin (relative titer of 31%). The same samples were assayed in a multi-cycle infectivity assay with PBMCs, with similar results (Figure 1C). […]

H9+ cells = details: pretreatment of infected cells, syncytium formation; cited from earlier work
Text: We hypothesized that M48U1 associates with gp120 molecules expressed on the cell membrane of infected cells prior to viral budding. If M48U1 dissociates very slowly from its target and is retained after washing, this could cause the production of defective virions. However, if this were the case, one would expect a similar attenuation effect for the tight-binding RT inhibitors UC781 and TMC120.

[3] = Human immunodeficiency virus 1, PBMC

| Molecule | EC50 (HIV-1 Bal [1]; [3]) [nM] | lower Gag p24 concentration in culture supernatant vs untreated control (HIV-1 Bal infected PBMCs) | relative titer of de novo produced virions (HIV-1 Bal [2]) [%] | reduction in the infectivity of de novo produced virus (H9+ cells) | EC50 (HIV-1 Bal [1]) [nM] | times less infectious than virions from control cultures (HIV-1 Bal [2]; 72 hours post-exposure, TZM-bl cells and PBMCs) |
| --- | --- | --- | --- | --- | --- | --- |
| Cc1cc(C)c(Nc2ccnc(Nc3ccc(C#N)cc3)n2)c(C)c1 [Dapivirine (TMC120)] | 5 |  |  |  |  |  |
| Cc1cccc(C)c1OCC(=O)N[C@@H](Cc1ccccc1)[C@@H](O)C[C@H](Cc1ccccc1)NC(=O)[C@H](C(C)C)N1CCCNC1=O [Lopinavir (LPV)] | 40 | 0.5-1 log | 14 |  |  |  |
| Cc1nnc(C(=O)NC(C)(C)c2nc(C(=O)NCc3ccc(F)cc3)c(O)c(=O)n2C)o1 [Raltegravir (RLT)] | 18 |  |  |  |  |  |
| CC(C)(C)NC(=O)[C@@H]1C[C@@H]2CCCC[C@@H]2CN1C[C@@H](O)[C@H](Cc1ccccc1)NC(=O)[C@H](CC(N)=O)NC(=O)c1ccc2ccccc2n1 [Saquinavir (SQV)] | 35 | 0.5-1 log | 47 |  |  |  |
| C[C@H](Cn1cnc2c(N)ncnc21)OCP(=O)(O)O [Tenofovir (TFV)] | 4800 |  |  |  |  |  |
| CC(C)=CCOc1cc(NC(=S)c2ccoc2C)ccc1Cl [UC781] | 35 |  | 75 | fivefold reduction |  |  |
| Griffithsin (GRFT): carbohydrate binding protein, binds glycans on gp120 |  |  | 31 |  | 1.5 | two |
